# Data from ChEMBL document CHEMBL3045611, “Identification of the G143A mutation associated with QoI resistance in Cercospora beticola field isolates from Michigan, United States” (Pest Manag Sci, 2013).
# Experiments:
# Assay type in all cases: functional, organism-based
# Cercospora beticola [1] = assay: Antifungal activity against Cercospora beticola isolate 11-1014-1 expressing cytb with alanine at codon 143 assessed as reduction in spore germination
# Cercospora beticola [2] = assay: Antifungal activity against Cercospora beticola isolate 11-1040-1 expressing cytb with alanine at codon 143 assessed as reduction in spore germination
# Cercospora beticola [3] = assay: Antifungal activity against Cercospora beticola isolate 11-1005-2 expressing cytb with alanine at codon 143 assessed as reduction in spore germination
# Cercospora beticola [4] = assay: Antifungal activity against Cercospora beticola isolate 11-1004-1 expressing cytb with alanine at codon 143 assessed as reduction in spore germination
# Cercospora beticola [5] = assay: Antifungal activity against Cercospora beticola isolate 11-1028-1 expressing cytb with alanine at codon 143 assessed as reduction in spore germination
# Cercospora beticola [6] = assay: Antifungal activity against Cercospora beticola isolate 11-1007-1 expressing cytb with alanine at codon 143 assessed as reduction in spore germination
# Cercospora beticola [7] = assay: Antifungal activity against Cercospora beticola isolate 11-1042-1 expressing cytb with alanine at codon 143 assessed as reduction in spore germination
# Cercospora beticola [8] = assay: Antifungal activity against Cercospora beticola isolate 11-1027-1 expressing cytb with alanine at codon 143 assessed as reduction in spore germination
# Cercospora beticola [9] = assay: Antifungal activity against Cercospora beticola isolate 11-1027-2 expressing cytb with alanine at codon 143 assessed as reduction in spore germination
# Cercospora beticola [10] = assay: Antifungal activity against Cercospora beticola isolate 99-233-3-M expressing cytb with glycine at codon 143 assessed as reduction in spore germination
# Cercospora beticola [11] = assay: Antifungal activity against Cercospora beticola isolate 11-1022-1 expressing cytb with alanine at codon 143 assessed as reduction in spore germination
# Cercospora beticola [12] = assay: Antifungal activity against Cercospora beticola isolate 11-1016-1 expressing cytb with alanine at codon 143 assessed as reduction in spore germination
# Cercospora beticola [13] = assay: Antifungal activity against Cercospora beticola isolate 11-1037-2 expressing cytb with alanine at codon 143 assessed as reduction in spore germination
# Cercospora beticola [14] = assay: Antifungal activity against Cercospora beticola isolate 11-1036-2 expressing cytb with alanine at codon 143 assessed as reduction in spore germination
# Cercospora beticola [15] = assay: Antifungal activity against Cercospora beticola isolate 11-1043-2 expressing cytb with alanine at codon 143 assessed as reduction in spore germination
# Cercospora beticola [16] = assay: Antifungal activity against Cercospora beticola isolate 11-1028-2 expressing cytb with alanine at codon 143 assessed as reduction in spore germination
# Cercospora beticola [17] = assay: Antifungal activity against Cercospora beticola isolate 98-10-M expressing cytb with glycine at codon 143 assessed as reduction in spore germination
# Cercospora beticola [18] = assay: Antifungal activity against Cercospora beticola isolate 11-1007-2 expressing cytb with alanine at codon 143 assessed as reduction in spore germination
# Cercospora beticola [19] = assay: Antifungal activity against Cercospora beticola isolate 11-1044-2 expressing cytb with alanine at codon 143 assessed as reduction in spore germination
# Cercospora beticola [20] = assay: Antifungal activity against Cercospora beticola isolate 11-1038-2 expressing cytb with alanine at codon 143 assessed as reduction in spore germination
# Cercospora beticola [21] = assay: Antifungal activity against Cercospora beticola isolate 98-12-M expressing cytb with glycine at codon 143 assessed as reduction in spore germination
# Cercospora beticola [22] = assay: Antifungal activity against Cercospora beticola isolate 11-1044-1 expressing cytb with alanine at codon 143 assessed as reduction in spore germination
# Cercospora beticola [23] = assay: Antifungal activity against Cercospora beticola isolate 11-1035-2 expressing cytb with alanine at codon 143 assessed as reduction in spore germination
# Cercospora beticola [24] = assay: Antifungal activity against Cercospora beticola isolate 11-1006-2 expressing cytb with alanine at codon 143 assessed as reduction in spore germination
# Cercospora beticola [25] = assay: Antifungal activity against Cercospora beticola isolate 11-1041-1 expressing cytb with alanine at codon 143 assessed as reduction in spore germination
# Cercospora beticola [26] = assay: Antifungal activity against Cercospora beticola isolate 11-1040-2 expressing cytb with alanine at codon 143 assessed as reduction in spore germination
# Cercospora beticola [27] = assay: Antifungal activity against Cercospora beticola isolate 11-1005-1 expressing cytb with alanine at codon 143 assessed as reduction in spore germination
# Cercospora beticola [28] = assay: Antifungal activity against Cercospora beticola isolate 11-1036-1 expressing cytb with alanine at codon 143 assessed as reduction in spore germination
# Cercospora beticola [29] = assay: Antifungal activity against Cercospora beticola isolate 98-101-5-M expressing cytb with glycine at codon 143 assessed as reduction in spore germination
# Cercospora beticola [30] = assay: Antifungal activity against Cercospora beticola isolate 11-1046-2 expressing cytb with alanine at codon 143 assessed as reduction in spore germination
# Cercospora beticola [31] = assay: Antifungal activity against Cercospora beticola isolate 11-1039-1 expressing cytb with alanine at codon 143 assessed as reduction in spore germination
# Cercospora beticola [32] = assay: Antifungal activity against Cercospora beticola isolate 98-13-M expressing cytb with glycine at codon 143 assessed as reduction in spore germination
# Cercospora beticola [33] = assay: Antifungal activity against Cercospora beticola isolate 99-521-29-M expressing cytb with glycine at codon 143 assessed as reduction in spore germination
# Cercospora beticola [34] = assay: Antifungal activity against Cercospora beticola isolate 11-1026-1 expressing cytb with alanine at codon 143 assessed as reduction in spore germination
# Cercospora beticola [35] = assay: Antifungal activity against Cercospora beticola isolate 11-1038-1 expressing cytb with alanine at codon 143 assessed as reduction in spore germination
# Cercospora beticola [36] = assay: Antifungal activity against Cercospora beticola isolate 11-1037-1 expressing cytb with alanine at codon 143 assessed as reduction in spore germination
# Cercospora beticola [37] = assay: Antifungal activity against Cercospora beticola isolate 11-1015-2 expressing cytb with alanine at codon 143 assessed as reduction in spore germination
# Cercospora beticola [38] = assay: Antifungal activity against Cercospora beticola isolate 11-1045-2 expressing cytb with alanine at codon 143 assessed as reduction in spore germination
# Cercospora beticola [39] = assay: Antifungal activity against Cercospora beticola isolate 11-1015-1 expressing cytb with alanine at codon 143 assessed as reduction in spore germination
# Cercospora beticola [40] = assay: Antifungal activity against Cercospora beticola isolate 11-1009-1 expressing cytb with alanine at codon 143 assessed as reduction in spore germination
# Cercospora beticola [41] = assay: Antifungal activity against Cercospora beticola isolate 98-19-M expressing cytb with glycine at codon 143 assessed as reduction in spore germination
# Cercospora beticola [42] = assay: Antifungal activity against Cercospora beticola isolate 98-150-M expressing cytb with glycine at codon 143 assessed as reduction in spore germination
# Cercospora beticola [43] = assay: Antifungal activity against Cercospora beticola isolate 11-1008-1 expressing cytb with alanine at codon 143 assessed as reduction in spore germination
# Cercospora beticola [44] = assay: Antifungal activity against Cercospora beticola isolate 98-9-M expressing cytb with glycine at codon 143 assessed as reduction in spore germination
# Cercospora beticola [45] = assay: Antifungal activity against Cercospora beticola isolate 11-1026-2 expressing cytb with alanine at codon 143 assessed as reduction in spore germination
# Cercospora beticola [46] = assay: Antifungal activity against Cercospora beticola isolate 11-1022-2 expressing cytb with alanine at codon 143 assessed as reduction in spore germination
# Cercospora beticola [47] = assay: Antifungal activity against Cercospora beticola isolate 11-1042-2 expressing cytb with alanine at codon 143 assessed as reduction in spore germination
# Cercospora beticola [48] = assay: Antifungal activity against Cercospora beticola isolate 11-1046-1 expressing cytb with alanine at codon 143 assessed as reduction in spore germination
# Cercospora beticola [49] = assay: Antifungal activity against Cercospora beticola isolate 11-1003-2 expressing cytb with alanine at codon 143 assessed as reduction in spore germination
structure (smiles),measurement,setting,value
COC(=O)N(OC)c1ccccc1COc1ccn(-c2ccc(Cl)cc2)n1 [PYRACLOSTROBIN],EC50,Cercospora beticola [1],5.03 µg/mL
same,EC50,Cercospora beticola [2],12 µg/mL
same,EC50,Cercospora beticola [3],7.86 µg/mL
same,EC50,Cercospora beticola [4],5.34 µg/mL
same,EC50,Cercospora beticola [5],8.79 µg/mL
same,EC50,Cercospora beticola [6],4.78 µg/mL
same,EC50,Cercospora beticola [7],31.4 µg/mL
same,EC50,Cercospora beticola [8],25.9 µg/mL
same,EC50,Cercospora beticola [9],4.12 µg/mL
same,EC50,Cercospora beticola [10],0.001 µg/mL
same,EC50,Cercospora beticola [11],29.7 µg/mL
same,EC50,Cercospora beticola [12],51.7 µg/mL
same,EC50,Cercospora beticola [13],5.92 µg/mL
same,EC50,Cercospora beticola [14],5.55 µg/mL
same,EC50,Cercospora beticola [15],16.9 µg/mL
same,EC50,Cercospora beticola [16],4.53 µg/mL
same,EC50,Cercospora beticola [17],0.001 µg/mL
same,EC50,Cercospora beticola [18],16.1 µg/mL
same,EC50,Cercospora beticola [19],5.23 µg/mL
same,EC50,Cercospora beticola [20],3.24 µg/mL
same,EC50,Cercospora beticola [21],0.001 µg/mL
same,EC50,Cercospora beticola [22],14.3 µg/mL
same,EC50,Cercospora beticola [23],31 µg/mL
same,EC50,Cercospora beticola [24],9.54 µg/mL
same,EC50,Cercospora beticola [25],4.55 µg/mL
same,EC50,Cercospora beticola [26],22.3 µg/mL
same,EC50,Cercospora beticola [27],46 µg/mL
same,EC50,Cercospora beticola [28],29.7 µg/mL
same,EC50,Cercospora beticola [29],0.001 µg/mL
same,EC50,Cercospora beticola [30],26.2 µg/mL
same,EC50,Cercospora beticola [31],20.4 µg/mL
same,EC50,Cercospora beticola [32],0.006 µg/mL
same,EC50,Cercospora beticola [33],0.001 µg/mL
same,EC50,Cercospora beticola [34],7.15 µg/mL
same,EC50,Cercospora beticola [35],39.9 µg/mL
same,EC50,Cercospora beticola [36],40.9 µg/mL
same,EC50,Cercospora beticola [37],2.1 µg/mL
same,EC50,Cercospora beticola [38],16.2 µg/mL
same,EC50,Cercospora beticola [39],72.2 µg/mL
same,EC50,Cercospora beticola [40],47.4 µg/mL
same,EC50,Cercospora beticola [41],0.003 µg/mL
same,EC50,Cercospora beticola [42],0.001 µg/mL
same,EC50,Cercospora beticola [43],4.82 µg/mL
same,EC50,Cercospora beticola [44],0.001 µg/mL
same,EC50,Cercospora beticola [45],7.56 µg/mL
same,EC50,Cercospora beticola [46],6.37 µg/mL
same,EC50,Cercospora beticola [47],32.6 µg/mL
same,EC50,Cercospora beticola [48],41.7 µg/mL
same,EC50,Cercospora beticola [49],0.915 µg/mL
CO/N=C(\C(=O)OC)c1ccccc1CO/N=C(\C)c1cccc(C(F)(F)F)c1,EC50,Cercospora beticola [1],4.54 µg/mL
same,EC50,Cercospora beticola [2],7.64 µg/mL
same,EC50,Cercospora beticola [3],3.25 µg/mL
same,EC50,Cercospora beticola [4],6.66 µg/mL
same,EC50,Cercospora beticola [5],7.62 µg/mL
same,EC50,Cercospora beticola [6],7.65 µg/mL
same,EC50,Cercospora beticola [7],8.83 µg/mL
same,EC50,Cercospora beticola [8],29.7 µg/mL
same,EC50,Cercospora beticola [9],6.06 µg/mL
same,EC50,Cercospora beticola [10],0.004 µg/mL
same,EC50,Cercospora beticola [11],6.86 µg/mL
same,EC50,Cercospora beticola [12],5.89 µg/mL
same,EC50,Cercospora beticola [13],4.24 µg/mL
same,EC50,Cercospora beticola [14],8.15 µg/mL
same,EC50,Cercospora beticola [15],3.27 µg/mL
same,EC50,Cercospora beticola [16],4.96 µg/mL
same,EC50,Cercospora beticola [17],0.001 µg/mL
same,EC50,Cercospora beticola [18],6.84 µg/mL
same,EC50,Cercospora beticola [19],8.56 µg/mL
same,EC50,Cercospora beticola [20],35.5 µg/mL
same,EC50,Cercospora beticola [21],0.005 µg/mL
same,EC50,Cercospora beticola [22],13.8 µg/mL
same,EC50,Cercospora beticola [23],6.36 µg/mL
same,EC50,Cercospora beticola [24],8.46 µg/mL
same,EC50,Cercospora beticola [25],6.09 µg/mL
same,EC50,Cercospora beticola [26],13.7 µg/mL
same,EC50,Cercospora beticola [27],9.54 µg/mL
same,EC50,Cercospora beticola [28],3.62 µg/mL
same,EC50,Cercospora beticola [29],0.006 µg/mL
same,EC50,Cercospora beticola [30],8.37 µg/mL
same,EC50,Cercospora beticola [31],6.79 µg/mL
same,EC50,Cercospora beticola [32],0.006 µg/mL
same,EC50,Cercospora beticola [33],0.005 µg/mL
same,EC50,Cercospora beticola [34],25.9 µg/mL
same,EC50,Cercospora beticola [35],19.9 µg/mL
same,EC50,Cercospora beticola [36],6.78 µg/mL
same,EC50,Cercospora beticola [37],7.79 µg/mL
same,EC50,Cercospora beticola [38],7.02 µg/mL
same,EC50,Cercospora beticola [39],7.3 µg/mL
same,EC50,Cercospora beticola [40],39.4 µg/mL
same,EC50,Cercospora beticola [41],0.005 µg/mL
same,EC50,Cercospora beticola [42],0.004 µg/mL
same,EC50,Cercospora beticola [43],7.49 µg/mL
same,EC50,Cercospora beticola [44],0.004 µg/mL
same,EC50,Cercospora beticola [45],8.55 µg/mL
same,EC50,Cercospora beticola [46],4.98 µg/mL
same,EC50,Cercospora beticola [47],2.36 µg/mL
same,EC50,Cercospora beticola [48],5.48 µg/mL
same,EC50,Cercospora beticola [49],1 µg/mL
